Measurements: article PMC10369073, “Production, identification, in silico analysis, and cytoprotection on H2O2-induced HUVECs of novel angiotensin-I-converting enzyme inhibitory peptides from Skipjack tuna roes” (Frontiers in Nutrition, 2023)

What was measured:
HUVECs [1] = test: ET-1 secretion in HUVECs (assay kit); type: cell-based, human; settings: control 55.37 ± 2.53 pg./mL
Experimental: (§1) HUVECs were cultured in DMEM supplemented with 100 µg/mL streptomycin, 10% FBS (v/v), and 100 U/mL penicillin at 37°C in a humidified 5% CO2 atmosphere for 24 h.
(§2) After treating with ACEi peptides (TRP3, TRP6, TRP9, or TRP12, respectively) for 24 h, NO and ET-1 contents were separately determined by employing human NO and ET-1 assay kit as per manufactures’ protocol ([18]).

HUVECs [2] = test: NO production in HUVECs (assay kit); type: cell-based, human; settings: control 33.68 ± 0.96 μM
Experimental: as §1, §2

ACE [3] = target: T1, ACE (Oryctolagus cuniculus, UniProt P12822); settings: cited from earlier work; for IC50: read-out: ACEi IC50
T1 sequence (P12822 34-1310): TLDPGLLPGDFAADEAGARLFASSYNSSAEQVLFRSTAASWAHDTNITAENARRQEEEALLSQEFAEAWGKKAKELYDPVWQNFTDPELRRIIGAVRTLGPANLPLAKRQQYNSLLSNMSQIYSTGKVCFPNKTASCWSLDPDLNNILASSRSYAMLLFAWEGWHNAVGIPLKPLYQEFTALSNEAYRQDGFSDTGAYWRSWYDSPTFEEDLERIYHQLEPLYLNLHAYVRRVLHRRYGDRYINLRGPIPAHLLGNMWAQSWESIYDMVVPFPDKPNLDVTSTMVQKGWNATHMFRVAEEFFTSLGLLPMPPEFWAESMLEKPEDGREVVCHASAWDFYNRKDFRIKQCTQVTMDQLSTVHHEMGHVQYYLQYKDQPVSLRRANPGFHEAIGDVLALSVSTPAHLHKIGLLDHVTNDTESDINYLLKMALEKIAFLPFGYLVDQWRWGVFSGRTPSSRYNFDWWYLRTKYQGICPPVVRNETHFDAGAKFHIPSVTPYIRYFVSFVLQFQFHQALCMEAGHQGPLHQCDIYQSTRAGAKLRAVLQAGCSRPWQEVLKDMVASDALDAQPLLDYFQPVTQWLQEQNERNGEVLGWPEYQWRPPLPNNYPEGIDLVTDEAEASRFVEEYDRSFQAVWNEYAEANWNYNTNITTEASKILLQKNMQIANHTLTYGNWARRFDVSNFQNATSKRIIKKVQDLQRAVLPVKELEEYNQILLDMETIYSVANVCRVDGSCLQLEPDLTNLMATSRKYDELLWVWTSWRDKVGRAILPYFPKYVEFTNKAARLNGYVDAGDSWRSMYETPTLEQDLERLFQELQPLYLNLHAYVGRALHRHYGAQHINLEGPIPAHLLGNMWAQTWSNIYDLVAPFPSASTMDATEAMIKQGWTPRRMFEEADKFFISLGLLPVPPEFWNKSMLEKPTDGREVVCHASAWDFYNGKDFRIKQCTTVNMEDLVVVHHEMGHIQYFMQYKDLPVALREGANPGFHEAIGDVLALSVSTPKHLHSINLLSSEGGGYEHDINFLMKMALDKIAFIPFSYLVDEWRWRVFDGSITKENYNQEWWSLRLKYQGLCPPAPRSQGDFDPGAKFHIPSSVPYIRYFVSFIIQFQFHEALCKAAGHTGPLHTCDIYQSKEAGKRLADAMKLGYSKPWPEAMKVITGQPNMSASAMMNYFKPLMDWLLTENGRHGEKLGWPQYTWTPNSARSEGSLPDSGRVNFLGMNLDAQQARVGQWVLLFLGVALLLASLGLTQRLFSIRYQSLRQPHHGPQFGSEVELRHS
From the text: Moreover, the C- and N-terminal amino acids are believed to play a crucial function in the activity of ACEi peptides ([21]). Yu et al. ([56]) reported that C-terminus (such as Trp, Tyr, Pro, or Phe) and N-terminus (such as Pro, Phe, Trp, or Met) hydrophobic amino acid residues have positive effects on the ACEi ...

ACE [4] = target: T1, ACE; settings: cited from earlier work
From the text: Peptide size and amino acid sequence are two key factors affecting the ACEi ability of BPs ([17], [21]). Peptide size decides the affinity between BPs and ACE because big polypeptides cannot be accommodated in and access the narrow channel of ACE ([21]). For example, VPP and IPP can easily access and bind the Zn^2+ of ACE channel, but ALPMHIR has low binding scores with ACE because it uncomfortably accesses the narrow channel ([19]). In the experiment, TRP3, TRP6, TRP9, and TRP10 are tetrapeptides or pentapeptides, and small size increases their access to the active channel of ACE, and this ha ...

[5] = target: T2, angiotensin-I-converting enzyme (ACE) (UniProt P12822)
T2 sequence: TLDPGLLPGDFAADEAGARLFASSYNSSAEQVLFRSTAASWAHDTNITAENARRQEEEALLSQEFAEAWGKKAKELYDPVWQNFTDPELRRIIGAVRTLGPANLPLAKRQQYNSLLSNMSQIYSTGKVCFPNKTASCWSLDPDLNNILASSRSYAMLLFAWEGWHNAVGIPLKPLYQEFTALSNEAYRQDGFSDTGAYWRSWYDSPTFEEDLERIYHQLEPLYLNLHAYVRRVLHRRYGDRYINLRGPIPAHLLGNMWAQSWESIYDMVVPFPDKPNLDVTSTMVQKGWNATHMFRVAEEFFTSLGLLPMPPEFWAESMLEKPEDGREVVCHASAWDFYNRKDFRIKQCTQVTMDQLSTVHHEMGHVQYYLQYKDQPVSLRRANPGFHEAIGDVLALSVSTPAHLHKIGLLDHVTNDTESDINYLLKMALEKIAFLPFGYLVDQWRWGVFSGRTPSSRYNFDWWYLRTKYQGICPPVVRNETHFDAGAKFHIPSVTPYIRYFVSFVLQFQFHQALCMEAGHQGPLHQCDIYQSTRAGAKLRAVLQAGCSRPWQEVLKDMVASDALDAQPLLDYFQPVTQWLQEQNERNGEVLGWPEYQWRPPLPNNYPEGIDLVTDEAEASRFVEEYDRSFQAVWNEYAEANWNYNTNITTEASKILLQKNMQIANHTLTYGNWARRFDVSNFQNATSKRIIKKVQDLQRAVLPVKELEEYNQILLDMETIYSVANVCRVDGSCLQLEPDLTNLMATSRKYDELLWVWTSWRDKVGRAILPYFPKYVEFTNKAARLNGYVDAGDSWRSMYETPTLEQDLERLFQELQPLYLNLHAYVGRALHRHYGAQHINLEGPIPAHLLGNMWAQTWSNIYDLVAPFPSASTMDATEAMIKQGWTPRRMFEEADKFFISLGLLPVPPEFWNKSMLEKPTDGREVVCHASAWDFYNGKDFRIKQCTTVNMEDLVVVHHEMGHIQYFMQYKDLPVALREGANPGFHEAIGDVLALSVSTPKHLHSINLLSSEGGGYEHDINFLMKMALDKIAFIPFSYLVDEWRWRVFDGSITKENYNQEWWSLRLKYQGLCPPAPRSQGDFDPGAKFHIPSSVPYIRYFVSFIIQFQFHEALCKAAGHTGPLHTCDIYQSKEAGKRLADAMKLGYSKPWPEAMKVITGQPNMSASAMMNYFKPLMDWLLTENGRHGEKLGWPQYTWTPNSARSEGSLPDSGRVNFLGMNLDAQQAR

[6] = target: T2, angiotensin-I-converting enzyme (ACE); remark: listed apart in the source

C[C@H](CS)C(=O)N1CCC[C@H]1C(=O)O [Cap, captopril, reference compound]
ET-1 content in HUVECs (HUVECs [1]; Cap 1.0 μM): 27.32 ± 1.28 pg/mL
NO level in HUVECs (HUVECs [2]; Cap treatment): 53.71 ± 2.313 µM

NC[C@H](O)c1ccc(O)c(O)c1 [NE, norepinephrine, reference compound]
ET-1 content in HUVECs (HUVECs [1]; NE 0.5 μM): 73.57 ± 3.09 pg/mL
NO level in HUVECs (HUVECs [2]; NE treatment (0.5 μM)): 18.59 ± 0.82 µM

ACKEP [literature ACEi peptide]
IC50 (ACE [3]): 126 µM

FRKE [literature ACEi peptide]
ACEi IC50 (ACE [3]): 6970 µg/mL

IYSP [literature ACEi peptide]
affinity with ACE (docking) (ACE [4]): -8.3 kcal/mol

KFYG [literature ACEi peptide]
IC50 (ACE [3]): 90.5 µM

LAPPSTRH [literature ACEi peptide]
ACEi IC50 (ACE [3]): 1310 µg/mL

LSFR [literature ACEi peptide]
affinity with ACE (docking) (ACE [4]): -8.5 kcal/mol

LVLL [literature ACEi peptide]
affinity with ACE (docking) (ACE [4]): -8.6 kcal/mol

MVGSAPGVL [literature ACEi peptide]
ACEi IC50 (ACE [3]): 3090 µg/mL

NFRPQ [literature ACEi peptide]
ACEi IC50 (ACE [3]): 4280 µg/mL

SHGEY [literature ACEi peptide]
affinity with ACE (docking) (ACE [4]): -8.7 kcal/mol

SPYGF [literature ACEi peptide]
affinity with ACE (docking) (ACE [4]): -9.7 kcal/mol

SWISS [literature ACEi peptide]
affinity with ACE (docking) (ACE [4]): -8.6 kcal/mol

YEGDP [literature ACEi peptide]
affinity with ACE (docking) (ACE [4]): -8.8 kcal/mol

YLRLHF [literature ACEi peptide]
ACEi IC50 (ACE [3]): 1260 µg/mL

YVVF [literature ACEi peptide]
affinity with ACE (docking) (ACE [4]): -9.8 kcal/mol

B1: TRP3 (WGESF; Trp-Gly-Glu-Ser-Phe) (peptide)
peptide: WGESF
ACEi rate (percent inhibition of ACE activity) of the RP-HPLC isolated peptide at 1.5 mg/mL [5]: 69.5%
ACEi activity (IC50): inhibition of ACE enzyme activity, substrate FAPGG, 37°C, product measured by HPLC at 228 nm [6]: 930 µg/mL

B2: TRP6 (IKSW; Ile-Lys-Ser-Trp) (peptide)
peptide: IKSW
ACEi rate (percent inhibition of ACE activity) of the RP-HPLC isolated peptide at 1.5 mg/mL [5]: 75.4%
ACEi activity (IC50): inhibition of ACE enzyme activity, substrate FAPGG, 37°C, product measured by HPLC at 228 nm [6]: 790 µg/mL

B3: TRP9 (YSHM; Tyr-Ser-His-Met) (peptide)
peptide: YSHM
ACEi rate (percent inhibition of ACE activity) of the RP-HPLC isolated peptide at 1.5 mg/mL [5]: 83.5%
ACEi activity (IC50): inhibition of ACE enzyme activity, substrate FAPGG, 37°C, product measured by HPLC at 228 nm [6]: 490 µg/mL

B4: TRP12 (WSPGF; Trp-Ser-Pro-Gly-Phe) (peptide)
peptide: WSPGF
ACEi rate (percent inhibition of ACE activity) of the RP-HPLC isolated peptide at 1.5 mg/mL [5]: 78.2%
ACEi activity (IC50): inhibition of ACE enzyme activity, substrate FAPGG, 37°C, product measured by HPLC at 228 nm [6]: 670 µg/mL
